Columns and labels:
[1] = biological target: T1, p-BTK (Phospho-Btk Tyr223) in TMD-8 cells (Homo sapiens, UniProt Q06187); assay: TMD8 cell line p-BTK Elisa assay; format: cell-based; conditions: for Maximal Inhibition Level: p-BTK ELISA; for IC50: pervanadate 100 μM, Tyr223 ELISA
T1 construct: endogenous in cells; host or cells: TMD-8
Experimental: The test compounds were added to the cells and cells were incubated for 0.5 hour at 37° C., 5% CO2. Then pervanadate solution was added to the cells to make a final concentration of 100 μM, and cells were incubated for a further 1 hour at 37° C., 5% CO2. […] The plate was read on a Multiscan Spectrum reader set to 450 nm wavelengths.

[2] = Hu Mic Clint; format: in vitro ADME, human; conditions: for microsomal CLint: human, microsomes
[3] = biological target: T2, Recombinant BTK wild type (BTK WT) (Homo sapiens, UniProt Q06187); assay: BTK WT HTRF kinase assay; format: biochemical; conditions: 30 min pre-incubation, 120 min reaction
T2 construct: purchased Thermo fisher
T2 sequence (Q06187 whole entry): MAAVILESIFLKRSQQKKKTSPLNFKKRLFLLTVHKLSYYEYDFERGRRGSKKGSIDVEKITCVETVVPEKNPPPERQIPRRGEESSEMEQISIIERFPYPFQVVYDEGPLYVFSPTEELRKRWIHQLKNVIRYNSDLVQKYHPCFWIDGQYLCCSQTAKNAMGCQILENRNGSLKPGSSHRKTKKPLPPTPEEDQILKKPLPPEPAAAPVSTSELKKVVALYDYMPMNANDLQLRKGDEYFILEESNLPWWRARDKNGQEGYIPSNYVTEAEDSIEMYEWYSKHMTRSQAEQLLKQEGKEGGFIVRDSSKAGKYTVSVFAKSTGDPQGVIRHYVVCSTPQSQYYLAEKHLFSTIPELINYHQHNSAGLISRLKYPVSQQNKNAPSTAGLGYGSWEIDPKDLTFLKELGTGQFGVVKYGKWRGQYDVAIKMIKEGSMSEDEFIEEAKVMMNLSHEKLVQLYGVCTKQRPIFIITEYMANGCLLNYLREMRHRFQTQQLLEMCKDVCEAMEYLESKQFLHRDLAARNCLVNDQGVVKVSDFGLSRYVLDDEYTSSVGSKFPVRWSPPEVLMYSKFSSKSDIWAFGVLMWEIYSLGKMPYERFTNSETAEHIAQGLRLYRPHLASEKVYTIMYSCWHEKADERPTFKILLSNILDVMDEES
Experimental: Recombinant BTK wild type (BTK WT) was purchased from Thermo fisher.
In brief, recombinant kinases were pre-incubated in the presence or absence of compound at room temperature for 30 minutes. The reaction was initiated by the addition of the ATP and substrate peptide which could be phosphorylated by kinases in the reaction. After 120 minutes incubation, the reaction was stopped by the addition of the detection reagent mix containing EDTA.

[4] = In vitro rat hepatocytes clearance assay; format: in vitro ADME
Experimental: (§1) In Vitro Rat/Human Hepatocytes Clearance Assay
(§2) Rat hepatocytes in male gender and human hepatocytes in mixed gender were obtained from commercial vendors (e.g., BioreclamationIVT) and stored at −150° C. prior to use. 10 mM stock solutions of tested compounds were prepared in DMSO. Thawing medium and supplement incubation medium (serum-free) were placed in a 37° C. water bath for at least 15 minutes prior to use. Stock solutions were diluted to 100 μM by combining 198 μL acetonitrile and 2 μL of 10 mM stock solution.
(§3) Vials of cryopreserved hepatocytes were removed from storage, ensured that vials remain at cryogenic temperatures. The vials were thawed in a 37° C. water bath with gently shaking. Vials were kept in a water bath until all ice crystals had dissolved and were no longer visible. Vials were sprayed with 70% ethanol before being transferred to a biosafety cabinet. And then the contents were poured into the 50 mL thawing medium conical tube. Vials were centrifuged at 100 g for 10 minutes at room temperature. Thawing medium was aspirated and hepatocytes were resuspended with serum-free incubation medium to yield ^˜1.5×10^6 cells/mL.
(§4) Cell viability and density were counted using a Trypan Blue exclusion, and then cells were diluted with serum-free incubation medium to a working cell density of 1×10^6 viable cells/ml. A portion of the hepatocytes at 1×10^6 viable cells/mL was boiled for 10 min prior to adding to the plate as negative control to eliminate the enzymatic activity so that little or no substrate turnover should be observed. The inactivated hepatocytes were used to prepare negative samples, which were used to exclude the misleading factor that resulted from instability of chemical itself.
(§5) Aliquots of 247.5 μL hepatocytes were dispensed into each well of a 96-well non-coated plate. The plate was placed in the incubator on an orbital shaker for approximately 10 minutes. Aliquots of 2.5 μL of the 100 μM test compounds were added into respective wells of the non-coated 96-well plate to start the reaction. This assay was performed in duplicate. The plate was incubated in the incubator on an orbital shaker for the designed time points. 20 μL of contents were transferred and mixed with 6 volumes (120 μL) of cold acetonitrile with internal standard to terminate the reaction at time points of 5, 15, 30, 45, 60, 80 and 100 minutes. Samples were centrifuges for 20 minutes at 4000 g and aliquots of 100 μl of the supernatants were used for LC-MS/MS analysis for measurement of test compounds.
(§6) In vitro hepatocyte clearance was estimated based on determination of elimination half-life (T1/2) of compounds disappearance from their initial concentrations. Peak area ratios of each compound (test or control) to IS was calculated. Ln (% Control) versus Incubation Time (min) curve was plotted, and the slope of a linear fitting line was calculated. Drug elimination rate constant k (min-1), T1/2 (min), and in vitro intrinsic clearance CLint (μL/min/E6) was calculated according to the following equations: k=−slope T1/2=0.693/k CLint=k/Chep • Where Chep (cells×μL-1) is the cell concentration in the incubation system. Procedure for Log D Determination

[5] = In vitro human hepatocytes clearance assay; format: in vitro ADME
Experimental: as §1, §2, §3, §4, §5, §6

[6] = Protein binding in human plasma by equilibrium dialysis; format: in vitro ADME; conditions: 18 hours at 37° C.; for hPPB (fu %): human plasma, 5 μM, fraction unbound; for fraction unbound at 18 h, 5 μM: human, plasma, pH 7.4, human plasma, read-out: hPPB (fu %)
Experimental: [formula] DF means the dilution factor. Procedure for Protein Binding Measurements in Human Plasma by Using Equilibrium Dialysis
Add 597 μL of blank plasma into each vial of a new plastic plate or separate plastic tube by addition of 3 μL of the working solution of each cassette, vortex at 1,000 rpm for 5 minutes. The final percent volume of organic solvent is 0.5% and the final concentration for test compound is 5 μM. Immediately transfer 50 μL of the spiked plasma suspension to a 96-well plate to act as T=0 control sample. The samples are treated the same as the samples after incubation. Place all remaining spiked plasma in the incubator for the duration of the study.
Place inserts open end up into the wells of the base plate. Add 500 μL of phosphate buffer (pH 7.4) to the buffer chamber, which is indicated by the white ring. Add 300 μL of spiked plasma sample into the sample chamber, which is indicated by the red ring. Cover the unit with gas permeable lid and incubate for 18 hours at 37° C. at 300 rpm with 5% CO2 on an orbital shaker in the CO2 incubator. At the end of incubation, remove lid and pipette 50 μL of post-dialysis samples from both buffer and plasma chambers into separated 96-well plate for analysis, respectively.
At the same time, the remaining spiked plasma sample in the plastic plate or separate plastic tube is incubated for 18 hours at 37° C. with 5% CO2 in the CO2 incubator. At T=18 hours, transfer 50 μL of the original spiked plasma suspension to the 96-well plate for analysis.
Add 50 μL of Human plasma to the buffer samples, and an equal volume of PBS to the collected plasma samples. Vortex the plate at 1,000 rpm for 2 minutes and add 400 μL of acetonitrile containing an appropriate internal standard (IS) to precipitate protein and release compound. Vortex at 1,000 rpm for 10 minutes. Centrifuge for 30 minutes at 4,000 rpm. Transfer 250 μl of the supernatant to new 96-well plates and centrifuge again (4,000 rpm, 30 minutes). Then transfer 100 μL of the supernatant to new 96-well plates for analysis. Add 100 μL of distilled water to each sample and vortex for 5 minutes at 1,000 rpm for analysis by LC-MS/MS. All compounds are tested in singlicate at 5 μM in human plasma.
All calculations are carried out using Microsoft Excel.
Calculate the percentage of unbound, percentage of bound and recovery of test compound as follows: […]

T1 sequence (Q06187 whole entry): as above

Nc1nccn2c(C3CCC(CO)OC3)nc(-c3ccc(Oc4cccc(F)c4F)cc3)c12 (single isomer, unassigned) [Compound 7, (5-(8-amino-1-(4-(2,3-difluorophenoxy)phenyl)imidazo[1,5-a]pyrazin-3-yl)tetrahydro-2H-pyran-2-yl)methanol]
Maximal Inhibition Level [1]: 97.9% | IC50 [1]: 138 nM | Hu Mic Clint [2]: 13.3 µL/min/mg | IC50 [3]: 1.59 nM | Rat Hep Clint [4]: 4.9 μL/min/10∧6 cells | Human Hep Clint [5]: 3.3 μL/min/10∧6 cells | hPPB (fu %) [6]: 7.3%

Nc1nccn2c(C3CCC(CO)OC3)nc(-c3ccc(Oc4ccccc4)c(F)c3F)c12 (single isomer, unassigned) [Compound 5, (5-(8-amino-1-(2,3-difluoro-4-phenoxyphenyl)imidazo[1,5-a]pyrazin-3-yl)tetrahydro-2H-pyran-2-yl)methanol]
Maximal Inhibition Level [1]: 95.8% | IC50 [1]: 48.7 nM | Hu Mic Clint [2]: 13.0 µL/min/mg | IC50 [3]: 4.92 nM | Rat Hep Clint [4]: 9.0 μL/min/10∧6 cells | Human Hep Clint [5]: 9.0 μL/min/10∧6 cells | hPPB (fu %) [6]: 9.0%

Nc1nccn2c(C3CCC(CO)OC3)nc(-c3ccc(Oc4ccccc4)c(F)c3F)c12 (single isomer, unassigned) [Compound 4, (5-(8-amino-1-(2,3-difluoro-4-phenoxyphenyl)imidazo[1,5-a]pyrazin-3-yl)tetrahydro-2H-pyran-2-yl)methanol]
Maximal Inhibition Level [1]: 97.4% | IC50 [1]: 30.7 nM | microsomal CLint [2]: 7.44 µL/min/mg | IC50 [3]: 0.49 nM | Rat Hep Clint [4]: 7.2 μL/min/10∧6 cells | Human Hep Clint [5]: 5.6 μL/min/10∧6 cells | fraction unbound at 18 h, 5 μM [6]: 0.088

Nc1nccn2c(C3CCC(CO)OC3)nc(-c3ccc(Oc4cccc(F)c4F)cc3)c12 (single isomer, unassigned) [Compound 6, (5-(8-amino-1-(4-(2,3-difluorophenoxy)phenyl)imidazo[1,5-a]pyrazin-3-yl)tetrahydro-2H-pyran-2-yl)methanol]
Maximal Inhibition Level [1]: 98.8% | IC50 [1]: 26.2 nM | microsomal CLint [2]: 8.8 µL/min/mg | IC50 [3]: 0.62 nM | Rat Hep Clint [4]: 8.2 μL/min/10∧6 cells | Human Hep Clint [5]: 2.1 μL/min/10∧6 cells | fraction unbound at 18 h, 5 μM [6]: 0.075

Nc1ncnn2c(C3CCC(CO)OC3)nc(-c3ccc(Oc4cccc(F)c4F)cc3)c12 (stereo not drawn) [Compound 14, (5-(4-amino-5-(4-(2,3-difluorophenoxy)phenyl)imidazo[5,1-f][1,2,4]triazin-7-yl)tetrahydro-2H-pyran-2-yl)methanol]
Maximal Inhibition Level [1]: 98.0% | IC50 [1]: 24.3 nM | microsomal CLint [2]: < 3 µL/min/mg | IC50 [3]: 0.7 nM | Rat Hep Clint [4]: 9.48 μL/min/10∧6 cells | Human Hep Clint [5]: 2.5 μL/min/10∧6 cells | fraction unbound at 18 h, 5 μM [6]: 0.049

Nc1ncnn2c(C3CCC(CO)OC3)nc(-c3ccc(Oc4ccccc4)cc3F)c12 (single isomer, unassigned) [Compound 10, Trans-(5-(4-amino-5-(2-fluoro-4-phenoxyphenyl)imidazo[5,1-f][1,2,4]triazin-7-yl)tetrahydro-2H-pyran-2-yl)methanol]
Maximal Inhibition Level [1]: 98.5% | IC50 [1]: 29 nM | Hu Mic Clint [2]: 7.0 µL/min/mg | IC50 [3]: 0.9 nM | Rat Hep Clint [4]: 17.1 μL/min/10∧6 cells | Human Hep Clint [5]: 1.7 μL/min/10∧6 cells | hPPB (fu %) [6]: 8.1%

Nc1nccn2c(C3CCC(CO)OC3)nc(-c3ccc(Oc4ccccc4)cc3)c12 (stereo not drawn) [Compound 1, (5-(8-amino-1-(4-phenoxyphenyl)imidazo[1,5-a]pyrazin-3-yl)tetrahydro-2H-pyran-2-yl)methanol]
Maximal Inhibition Level [1]: 97.9% | IC50 [1]: 18.9 nM | microsomal CLint [2]: 44.9 µL/min/mg | IC50 [3]: 1.16 nM | Rat Hep Clint [4]: 12.4 μL/min/10∧6 cells | Human Hep Clint [5]: 28.9 μL/min/10∧6 cells | fraction unbound at 18 h, 5 μM [6]: 0.098

Nc1nccn2c(C3CCC(CO)OC3)nc(-c3ccc(Oc4ccccc4)cc3F)c12 (single isomer, unassigned) [Compound 2, Trans-(5-(8-amino-1-(2-fluoro-4-phenoxyphenyl)imidazo[1,5-a]pyrazin-3-yl)tetrahydro-2H-pyran-2-yl)methanol]
Maximal Inhibition Level [1]: 98.4% | IC50 [1]: 29.1 nM | microsomal CLint [2]: 12.7 µL/min/mg | IC50 [3]: 0.6 nM | Rat Hep Clint [4]: 6.1 μL/min/10∧6 cells | Human Hep Clint [5]: 4.6 μL/min/10∧6 cells | fraction unbound at 18 h, 5 μM [6]: 0.106

Nc1ncnn2c(C3CCC(CO)OC3)nc(-c3ccc(Oc4ccccc4)cc3F)c12 (single isomer, unassigned) [Compound 11, Trans-(5-(4-amino-5-(2-fluoro-4-phenoxyphenyl)imidazo[5,1-f][1,2,4]triazin-7-yl)tetrahydro-2H-pyran-2-yl)methanol]
Maximal Inhibition Level [1]: 99.3% | IC50 [1]: 34.7 nM | Hu Mic Clint [2]: 9.3 µL/min/mg | IC50 [3]: 4.51 nM | Rat Hep Clint [4]: 11.7 μL/min/10∧6 cells | Human Hep Clint [5]: 3.6 μL/min/10∧6 cells | hPPB (fu %) [6]: 8.9%

Reference: patent US12624039B2, “BTK inhibitors” (DIZAL (JIANGSU) PHARMACEUTICAL CO., LTD., priority 2020, dated 2026)
